Assay results taken from patent US20070219234A1, “Thienopyridine Derivatives” (priority 2004, published 2007).

melting point | Compound
> 295 °C | Cl.Cl.NC(=O)c1sc2nccc(N3CCCNCC3)c2c1N
270 to 280 °C | Cl.Cl.NC(=O)c1sc2nccc(N3CCNCC3)c2c1N
285 to 288 °C | NC(=O)c1sc2nccc(N3CC[C@@H]4CCCC[C@H]4C3)c2c1N (relative stereo) [Example 28, 3-amino-4-(trans-perhydroisoquinolin-2-yl)thieno[2,3-b]pyridine-2-carboxamide]
127 to 129 °C | CCN(CC)c1ccnc2sc(C(N)=O)c(N)c12 [Example 2, 3-amino-4-(diethylamino)thieno[2,3-b]pyridine-2-carboxamide]
167 to 170 °C | Cc1cc(N(C)C)c2c(N)c(C(N)=O)sc2n1 [Example 3, 3-amino-4-(dimethylamino)-6-methylthieno[2,3-b]pyridine-2-carboxamide]
214 to 215 °C | CCCNc1ccnc2sc(C(N)=O)c(N)c12 [Example 4, 3-amino-4-(propylamino)thieno[2,3-b]pyridine-2-carboxamide]
117 to 119 °C | CC(C)CNc1ccnc2sc(C(N)=O)c(N)c12 [Example 5, 3-amino-4-(isobutylamino)thieno[2,3-b]pyridine-2-carboxamide]
238 to 240 °C | CC(C)(C)CNc1ccnc2sc(C(N)=O)c(N)c12 [Example 6, 3-amino-4-(neopentylamino)thieno[2,3-b]pyridine-2-carboxamide]
260 to 262 °C | NC(=O)c1sc2nccc(NCc3ccccc3)c2c1N [Example 7, 3-amino-4-(benzylamino)thieno[2,3-b]pyridine-2-carboxamide]
232 to 234 °C | NC(=O)c1sc2nccc(NCCCc3ccccc3)c2c1N [Example 9, 3-amino-4-[(3-phenylpropyl)amino]thieno[2,3-b]pyridine-2-carboxamide]
244 to 247 °C | NC(=O)c1sc2nccc(NC3CCCCC3)c2c1N [Example 11, 3-amino-4-(cyclohexylamino)thieno[2,3-b]pyridine-2-carboxamide]
206 to 208 °C | NC(=O)c1sc2nccc(NC3CCCCCC3)c2c1N [Example 12, 3-amino-4-(cycloheptylamino)thieno[2,3-b]pyridine-2-carboxamide]
275 to 283 °C | NC(=O)c1sc2nccc(N3CCCC3)c2c1N [Example 13, 3-amino-4-pyrrolidin-1-ylthieno[2,3-b]pyridine-2-carboxamide]
252 to 254 °C | CC1CCN(c2ccnc3sc(C(N)=O)c(N)c23)CC1 [Example 15, 3-amino-4-(4-methylpiperidin-1-yl)thieno[2,3-b]pyridine-2-carboxamide]
220 to 221 °C | NC(=O)c1sc2nccc(N3CCC(Cc4ccccc4)CC3)c2c1N [Example 18, 3-amino-4-(4-benzylpiperidin-1-yl)thieno[2,3-b]pyridine-2-carboxamide]
239 to 241 °C | NC(=O)c1sc2nccc(N3CCC(O)CC3)c2c1N [Example 19, 3-amino-4-(4-hydroxypiperidin-1-yl)thieno[2,3-b]pyridine-2-carboxamide]
235 °C (dec.) | NC(=O)c1sc2nccc(N3CC=C(c4ccccc4)CC3)c2c1N [Example 21, 3-amino-4-(4-phenyl-3,6-dihydropyridin-1(2H)-yl)thieno[2,3-b]pyridine-2-carboxamide]
232 to 234 °C | NC(=O)c1sc2nccc(N3CCOCC3)c2c1N [Example 22, 3-amino-4-morpholin-4-ylthieno[2,3-b]pyridine-2-carboxamide]
242 to 244 °C | C[C@@H]1CN(c2ccnc3sc(C(N)=O)c(N)c23)C[C@H](C)O1 [Example 23, 3-amino-4-(cis-2,6-dimethylmorpholin-4-yl)thieno[2,3-b]pyridine-2-carboxamide]
219 to 221 °C | NC(=O)c1sc2nccc(N3CCCCCC3)c2c1N [Example 25, 3-amino-4-azepan-1-ylthieno[2,3-b]pyridine-2-carboxamide]
222 to 224 °C | NC(=O)c1sc2nccc(N3CCCCCCC3)c2c1N [Example 26, 3-amino-4-azocan-1-ylthieno[2,3-b]pyridine-2-carboxamide]
244 to 245 °C | NC(=O)c1sc2nccc(N3CCc4ccccc4C3)c2c1N [Example 27, 3-amino-4-(3,4-dihydroisoquinoline-2(1H)-yl)thieno[2,3-b]pyridine-2-carboxamide]
175 to 176 °C | NC(=O)c1sc2nccc(N3CCCOCC3)c2c1N [Example 30, 3-amino-4-(1,4-oxazepan-4-yl)thieno[2,3-b]pyridine-2-carboxamide]

melting point | Compound
226 to 233 °C | NC(=O)c1sc2nccc(N3CCC(c4ccccc4)CC3)c2c1N [Example 31, 3-amino-4-(4-phenylpiperidin-1-yl)thieno[2,3-b]pyridine-2-carboxamide]
165 to 172 °C | NC(=O)c1sc2nccc(N3CC[S+]([O-])CC3)c2c1N [Example 32, 3-amino-4-(1-oxothiomorpholine-4-yl)thieno[2,3-b]pyridine-2-carboxamide]
171 to 174 °C | NC(=O)c1sc2nccc(N3CCCSCC3)c2c1N [Example 33, 3-amino-4-(1,4-thiazepan-4-yl)thieno[2,3-b]pyridine-2-carboxamide]
111 to 119 °C | NC(=O)c1sc2nccc(N3CCC[S+]([O-])CC3)c2c1N (centres unmarked) [Example 34, 3-amino-4-(1-oxo-1,4-thiazepan-4-yl)thieno[2,3-b]pyridine-2-carboxamide]
267 to 269 °C | NC(=O)c1sc2nccc(N3CCCC(c4ccccc4)C3)c2c1N (centres unmarked) [Example 35, 3-amino-4-(3-phenylpiperidin-1-yl)thieno[2,3-b]pyridine-2-carboxamide]
208 to 211 °C | NC(=O)c1sc2nccc(N3CCCC(O)C3)c2c1N (centres unmarked) [Example 36, 3-amino-4-(3-hydroxypiperidin-1-yl)thieno[2,3-b]pyridine-2-carboxamide]
198 to 203 °C | CC(C)(C)OC(=O)N1CCN(c2ccnc3sc(C(N)=O)c(N)c23)CC1 [Example 37, tert-butyl 4-[3-amino-2-(aminocarbonyl)thieno[2,3-b]pyridin-4-yl]piperazine-1-carboxylate]
260 to 263 °C | CN1CCN(c2ccnc3sc(C(N)=O)c(N)c23)CC1 [Example 39, 3-amino-4-(4-methylpiperazin-1-yl)thieno[2,3-b]pyridine-2-carboxamide]
218 to 219 °C | CCN1CCN(c2ccnc3sc(C(N)=O)c(N)c23)CC1 [Example 40, 3-amino-4-(4-ethylpiperazin-1-yl)thieno[2,3-b]pyridine-2-carboxamide]
240 to 243 °C | CC(C)N1CCN(c2ccnc3sc(C(N)=O)c(N)c23)CC1 [Example 41, 3-amino-4-(4-isopropylpiperazin-1-yl)thieno[2,3-b]pyridine-2-carboxamide]
250 to 252 °C | NC(=O)c1sc2nccc(N3CCN(c4ccccc4)CC3)c2c1N [Example 42, 3-amino-4-(4-phenylpiperazin-1-yl)thieno[2,3-b]pyridine-2-carboxamide]
241 to 242 °C | NC(=O)c1sc2nccc(N3CCN(Cc4ccccc4)CC3)c2c1N [Example 43, 3-amino-4-(4-benzylpiperazin-1-yl)thieno[2,3-b]pyridine-2-carboxamide]
280 °C (dec.) | NC(=O)c1sc2nccc(N3CCN(c4ncccn4)CC3)c2c1N [Example 44, 3-amino-4-(4-pyrimidin-2-ylpiperazin-1-yl)thieno[2,3-b]pyridine-2-carboxamide]
266 to 270 °C | NC(=O)c1sc2nccc(N3CCN(c4ccccn4)CC3)c2c1N [Example 45, 3-amino-4-(4-pyridin-2-ylpiperazin-1-yl)thieno[2,3-b]pyridine-2-carboxamide]
270 °C (dec.) | Cc1ccc(N2CCN(c3ccnc4sc(C(N)=O)c(N)c34)CC2)cc1 [Example 46, 3-amino-4-[4-(4-methylphenyl)piperazin-1-yl]thieno[2,3-b]pyridine-2-carboxamide]
275 °C (dec.) | NC(=O)c1sc2nccc(N3CCN(c4ccc(F)cc4)CC3)c2c1N [Example 47, 3-amino-4-[4-(4-fluorophenyl)piperazin-1-yl]thieno[2,3-b]pyridine-2-carboxamide]
225 to 233 °C | NC(=O)c1sc2nccc(N3CCN(C(c4ccccc4)c4ccccc4)CC3)c2c1N [Example 48, 3-amino-4-(4-benzhydrylpiperazin-1-yl)thieno[2,3-b]pyridine-2-carboxamide]
275 °C (dec.) | COc1ccc(N2CCN(c3ccnc4sc(C(N)=O)c(N)c34)CC2)cc1 [Example 49, 3-amino-4-[4-(4-methoxyphenyl)piperazin-1-yl]thieno[2,3-b]pyridine-2-carboxamide]
> 300 °C | NC(=O)c1sc2nccc(N3CCN(C(=O)c4ccccc4)CC3)c2c1N [Example 51, 3-amino-4-(4-benzoylpiperazin-1-yl)thieno[2,3-b]pyridine-2-carboxamide]
297 °C (dec.) | NC(=O)c1sc2nccc(N3CCN(c4ccc(Cl)cc4)CC3)c2c1N [Example 52, 3-amino-4-[4-(4-chlorophenyl)piperazin-1-yl]thieno[2,3-b]pyridine-2-carboxamide]
294 °C (dec.) | COc1ccccc1N1CCN(c2ccnc3sc(C(N)=O)c(N)c23)CC1 [Example 53, 3-amino-4-[4-(2-methoxyphenyl)piperazin-1-yl]thieno[2,3-b]pyridine-2-carboxamide]
294 to 298 °C (dec.) | NC(=O)c1sc2nccc(N3CCN(c4ccccc4Cl)CC3)c2c1N [Example 54, 3-amino-4-[4-(2-chlorophenyl)piperazin-1-yl]thieno[2,3-b]pyridine-2-carboxamide]
177 to 178 °C | CC(C)(C)OC(=O)N1CCCN(c2ccnc3sc(C(N)=O)c(N)c23)CC1 [Example 55, tert-butyl 4-[3-amino-2-(aminocarbonyl)thieno[2,3-b]pyridin-4-yl]-1,4-diazepane-1-carboxylate]

Compound | melting point
CC(=O)OC1CCN(c2ccnc3sc(C(N)=O)c(N)c23)CC1 [Example 20, 3-amino-4-(4-acetoxypiperidin-1-yl)thieno[2,3-b]pyridine-2-carboxamide] | 231 to 235 °C
